Earlier results in PMC6376154 (International Journal for Parasitology: Drugs and Drug …, 2019).
Where two headings read alike, the source gives them in different places.

Test system: P. falciparum 3D7 asexual blood stage
Details: cited from earlier work
[1] = MMV Malaria Box data sheet (supplement mmc2.xls), ref MMV data sheet
[2] = MMV Malaria Box data sheet (supplement mmc2.xls), ref MMV data sheet, read-out: EC50_nM
[3] = value(s) per source (GSK, GNF, StJude), separated by semicolon, ref ChEMBL-NTD, read-out: CHEMBL EC50
[4] = MMV Malaria Box sheet, ref MMV data sheets
[5] = MMV Malaria Box sheet, ref MMV data sheets, read-out: EC50_nM
[6] = source StJude, ref ChEMBL_NTD, read-out: CHEMBL EC50
[7] = source GSK, ref ChEMBL_NTD, read-out: CHEMBL EC50
[8] = ChEMBL-NTD value per source (GNF, GSK, StJude), several values in a cell follow the order of the sources, read-out: CHEMBL EC50
[9] = MMV Malaria Box data sheet, ref MMV data sheets
[10] = MMV Malaria Box data sheet, ref MMV data sheets, read-out: EC50_nM
[11] = source GNF, ref ChEMBL_NTD, read-out: CHEMBL EC50

For `O=C(Nc1ccc(F)c(Cl)c1)Nc1ccc(Cl)c(Cl)c1` [MMV665953], the “percent_inh @ 5 uM” value [1] is given as 95%, the EC50 [2] is given as 2060 nM and the EC50 [3] is given as 5410 nM.
In the case of `O=C(NCC1Cc2cccc(-c3ccncc3)c2O1)c1csc2c1CCCC2` (stereo not drawn) [MMV665954], the “percent_inh @ 5 uM” value [1] is given as 87%, the EC50 [2] is given as 1720 nM and the EC50 [3] is given as 8740 nM.
For `CCN(CC)CCCNc1nc(-c2ccc(Cl)cc2)nc2ccccc12` [MMV665961], the “percent_inh @ 5 uM” value [1] is given as 92% and the EC50 [3] is given as 15000 nM.
For `COc1cccc(C(=O)NC(c2ccc(C)cc2)c2cc(Cl)c3cccnc3c2O)c1` (stereo not drawn) [MMV665969], the “percent_inh @ 5 uM” value [4] is listed as 97%, the EC50 [5] is listed as 393 nM and the EC50 [6] is listed as 15000 nM.
In the case of `CCOC(=O)C1=C(C)N=c2sc(=Cc3cc(Cl)ccc3O)c(=O)n2C1c1ccc(OC)cc1` (stereo not drawn) [MMV665971], the “percent_inh @ 5 uM” value [4] is given as 97%, the EC50 [5] is given as 489 nM and the EC50 [7] is given as 746 nM. For the same molecule, the EC50 [6] was 15000 nM.
For `O=C(Cc1ccccc1)NC(c1ccc(Cl)cc1)c1c(O)ccc2ccccc12` (stereo not drawn) [MMV665972], the EC50 [8] is given as 15000 nM.
In the case of `CCOC(=O)c1cn(CC)c2cc(N(C)CCc3ccc(OC)c(OC)c3)c(F)cc2c1=O` [MMV665977], the “percent_inh @ 5 uM” value [9] is given as 99%, the EC50 [10] is given as 205 nM and the EC50 [11] is given as 103 nM. For the same molecule, the EC50 [7] was 425 nM.
For `FC(F)(F)c1cccc(CNC2CCN(CCc3ccccc3)CC2)c1` [MMV665979], the “percent_inh @ 5 uM” value [9] is listed as 96%, the EC50 [10] is listed as 685 nM and the EC50 [11] is listed as 174 nM.
For `OC1CCCCC1C1(NC(=S)Nc2ccccc2)CCCCC1` (stereo not drawn) [MMV665980], the “percent_inh @ 5 uM” value [4] is listed as 59% and the EC50 [11] is listed as 211 nM.
For `CCCCCCc1cc(O)c2c3c(c(=O)oc2c1)CCC(C)C3` (stereo not drawn) [MMV665987], the “percent_inh @ 5 uM” value [4] is listed as 96%, the EC50 [5] is listed as 534 nM and the EC50 [11] is listed as 364 nM.
For `Cc1nc2ccccc2c(O)c1CC=C(Cl)Cl` [MMV665994], the “percent_inh @ 5 uM” value [4] is given as 89%, the EC50 [5] is given as 836 nM and the EC50 [11] is given as 498 nM.
For `CN1c2ccccc2N(C)C1c1ccc2c(c1)OCO2` [MMV666009], the “percent_inh @ 5 uM” value [1] is given as 60%, the EC50 [2] is given as 994 nM and the EC50 [3] is given as 1120 nM.
For `Cc1ccc(OCCCCCCNCCO)c(C)c1` [MMV666020], the “percent_inh @ 5 uM” value [4] is listed as 49% and the EC50 [11] is listed as 1970 nM.
For `Cc1ccc(-c2cc3c(nn2)-c2ccccc2C3=O)cc1` [MMV666021], the “percent_inh @ 5 uM” value [9] is listed as 99%, the EC50 [10] is listed as 94.4 nM and the EC50 [11] is listed as 2000 nM.
For `COc1ccc(C(=O)NC(c2ccccc2Cl)c2cc(Cl)c3cccnc3c2O)cc1` (stereo not drawn) [MMV666022], the EC50 [8] is given as 2370 nM.
For `c1ccc(Cn2c(N=Nc3c(Nc4ccccc4)ccc4ccccc34)nc3ccccc32)cc1` [MMV666023], the “percent_inh @ 5 uM” value [9] is given as 96%, the EC50 [10] is given as 36.8 nM and the EC50 [11] is given as 2730 nM.
For `OC(Cn1nnc2ccccc21)Cn1c2ccc(Br)cc2c2cc(Br)ccc21` (stereo not drawn) [MMV666025], the EC50 [8] is given as 3370 nM.
In the case of `COc1ccc(-c2cc3c(nn2)-c2ccccc2C3=O)cc1` [MMV666026], the EC50 [8] is given as 3840 nM.
In the case of `COc1ccc(C(=O)NC(c2ccc(Cl)cc2Cl)c2cc(Cl)c3cccnc3c2O)cc1` (stereo not drawn) [MMV666054], the “percent_inh @ 5 uM” value [4] is given as 96%, the EC50 [5] is given as 513 nM and the EC50 [7] is given as 499 nM.
For `O=C(Nc1ccc(Cl)cc1C(=O)Nc1ccncc1)c1ccc(Cl)cc1Cl` [MMV666057], the “percent_inh @ 5 uM” value [9] is listed as 94% and the EC50 [7] is listed as 611 nM.
In the case of `COc1ccc(CN2CCCC(C(=O)c3ccc(C(F)(F)F)cc3)C2)c(O)c1` (stereo not drawn) [MMV666060], the EC50 [8] is listed as 849 nM.
In the case of `COc1cccc(O)c1CN1CCC2(CCCN(Cc3ccc(F)cc3)C2)C1` (stereo not drawn) [MMV666061], the “percent_inh @ 5 uM” value [1] is given as 95%, the EC50 [2] is given as 530 nM and the EC50 [3] is given as 865 nM.
For `Cc1ccc(N2C(=O)C3C(C2=O)C2(c4ccccc4)C(=O)C3(c3ccccc3)C(c3ccccc3)=C2c2ccccc2)cc1` (stereo not drawn) [MMV666062], the “percent_inh @ 5 uM” value [9] is listed as 98%, the EC50 [10] is listed as 282 nM and the EC50 [7] is listed as 869 nM.
In the case of `COc1ccc(CNC2CCN(c3ccc(NC(=O)c4cccc(Cl)c4)cc3)CC2)cc1OC` [MMV666067], the “percent_inh @ 5 uM” value [1] is listed as 97%, the EC50 [2] is listed as 663 nM and the EC50 [3] is listed as 1020 nM.
For `COc1ccc(CCN2CCC(CN(C)Cc3cnn(-c4ccccc4)c3)CC2)cc1` [MMV666069], the “percent_inh @ 5 uM” value [1] is listed as 96%, the EC50 [2] is listed as 1430 nM and the EC50 [3] is listed as 1160 nM.
For `O=C(NC1CCCC1)c1ccc(N2CCC(NCc3cccc(C(F)(F)F)c3)CC2)cc1` [MMV666070], the “percent_inh @ 5 uM” value [1] is listed as 93% and the EC50 [3] is listed as 1330 nM.
In the case of `Cc1ccc(CN2CCC(C(=O)Nc3ccc(-c4cc5ccccc5[nH]4)cc3)CC2)o1` [MMV666071], the “percent_inh @ 5 uM” value [1] is listed as 77% and the EC50 [3] is listed as 1420 nM.
In the case of `COCCNC(=O)c1ccc(OC2CCN(Cc3ccc(F)c(F)c3)CC2)c(Cl)c1` [MMV666072], the “percent_inh @ 5 uM” value [9] is given as 91% and the EC50 [7] is given as 1490 nM.
For `COc1ccc(C2N(C)c3ccccc3N2C)cc1` [MMV666075], the “percent_inh @ 5 uM” value [1] is given as 62% and the EC50 [3] is given as 15000 nM.
In the case of `Cc1ccc2cc3c(N)c4c(C)ccc(C)c4nc3nc2c1` [MMV666079], the “percent_inh @ 5 uM” value [4] is given as 98%, the EC50 [5] is given as 1310 nM and the EC50 [11] is given as 431 nM.
In the case of `O=C(NC(c1ccccc1)c1ccc2cccnc2c1O)c1ccccc1` (stereo not drawn) [MMV666080], the “percent_inh @ 5 uM” value [1] is given as 95% and the EC50 [2] is given as 1170 nM.
For `CCCc1c(C)nc2ccccc2c1O` [MMV666081], the “percent_inh @ 5 uM” value [1] is listed as 88% and the EC50 [3] is listed as 630 nM.
In the case of `CCCC(c1nnnn1C1CCCCC1)N1CCN(C(=O)c2ccco2)CC1` (stereo not drawn) [MMV666093], the “percent_inh @ 5 uM” value [1] is given as 82% and the EC50 [3] is given as 1330 nM.
In the case of `CCCc1c(C)nc2ccc(Br)cc2c1O` [MMV666095], the “percent_inh @ 5 uM” value [4] is listed as 64%, the EC50 [5] is listed as 1190 nM and the EC50 [11] is listed as 1510 nM.
In the case of `COc1ccc(C2=C(c3ccc(OC)cc3)C3(c4ccccc4)C(=O)C2(c2ccccc2)C2C(=O)N(c4ccc(C)cc4)C(=O)C23)cc1` (stereo not drawn) [MMV666101], the “percent_inh @ 5 uM” value [9] is given as 98%, the EC50 [10] is given as 148 nM and the EC50 [11] is given as 12500 nM.
For `CN(C)c1ccc(-c2nc3cc(N)ccc3[nH]2)cc1` [MMV666102], the “percent_inh @ 5 uM” value [1] is given as 64% and the EC50 [3] is given as 239 nM.
For `CCn1c(SCC(=O)Nc2cc(C(F)(F)F)ccc2Cl)nc2ccccc2c1=O` [MMV666103], the “percent_inh @ 5 uM” value [9] is listed as 91%, the EC50 [10] is listed as 1000 nM and the EC50 [7] is listed as 397 nM.
In the case of `COCCN(C(=O)Cc1cccs1)C(C(=O)NCc1ccc(OC)cc1)c1ccc(C(C)C)cc1` (stereo not drawn) [MMV666105], the “percent_inh @ 5 uM” value [9] is listed as 92%, the EC50 [10] is listed as 1190 nM and the EC50 [7] is listed as 845 nM.
For `O=C(NC1CCCCC1)C(c1cccs1)N(CCc1ccccc1)C(=O)c1ccco1` (stereo not drawn) [MMV666106], the EC50 [8] is given as 1040 nM.
For `O=C(CCc1ccco1)NC1CCN(CC2(c3ccc(Cl)cc3)CCC2)CC1` [MMV666108], the “percent_inh @ 5 uM” value [1] is given as 96%, the EC50 [2] is given as 1140 nM and the EC50 [3] is given as 1450 nM.
In the case of `CCOC(=O)C1(Cc2ccccc2)CCN(Cc2cccc(OC)c2O)CC1` [MMV666109], the “percent_inh @ 5 uM” value [4] is given as 95% and the EC50 [6] is given as 2290 nM.
For `C=C(C)CCC(C)N1CCC(N2CCC(C(=O)NCCc3ccccc3)CC2)CC1` (stereo not drawn) [MMV666110], the “percent_inh @ 5 uM” value [1] is given as 96%, the EC50 [2] is given as 1750 nM and the EC50 [3] is given as 4260 nM.
In the case of `Oc1ccccc1CN1CCC2(CCCN(Cc3ccccc3F)C2)C1` (stereo not drawn) [MMV666116], the “percent_inh @ 5 uM” value [1] is listed as 98%, the EC50 [2] is listed as 548 nM and the EC50 [3] is listed as 679 nM.
For `CC(C)(C)c1ccc(C(=O)Nc2c3c(nn2-c2cccc(Cl)c2)CSC3)cc1` [MMV666123], the “percent_inh @ 5 uM” value [4] is given as 93% and the EC50 [6] is given as 15000 nM.
In the case of `CC1=C(CC(=O)c2cccc([N+](=O)[O-])c2)C(=O)c2ccccc2C1=O` [MMV666125], the “percent_inh @ 5 uM” value [4] is given as 95%, the EC50 [5] is given as 381 nM and the EC50 [11] is given as 2840 nM.
For `CSC1=NC(=Nc2c(C)cccc2C)C2(CCC(C(C)(C)C)CC2)N1c1ccc(Cl)cc1` (stereo not drawn) [MMV666596], the “percent_inh @ 5 uM” value [9] is given as 96%, the EC50 [10] is given as 135 nM and the EC50 [11] is given as 1480 nM.
In the case of `CCCCCCc1cc2cc(-c3nc4ccccc4[nH]3)c(=Nc3ccccc3C)oc2cc1O` [MMV666597], the EC50 [8] is given as 2120 nM.
For `O=c1nc(C=Cc2ccc(Br)cc2)oc2ccccc12` [MMV666599], the “percent_inh @ 5 uM” value [4] is listed as 94% and the EC50 [7] is listed as 1050 nM.
